What was measured:
[1] = target: T1, EgAgB8/3 (antigen B subunit 3); assay: fluorimetric titration of 12-AS (direct probe binding, TBS); parameters: species or system Echinococcus granulosus
T1 construct: gene EgAgB3; recombinant lipid-free (RP-HPLC delipidated) EgAgB8/3 mature subunit, GST fusion cleaved with thrombin; GenBank AAK64236

[2] = target: T2, EgAgB8/2 (antigen B subunit 2) (Echinococcus granulosus, UniProt Q27275); assay: fluorimetric titration of 12-AS (direct probe binding, […]°C, TBS)
T2 construct: gene AgB2; recombinant lipid-free (RP-HPLC delipidated) EgAgB8/2 mature subunit, GST fusion cleaved with thrombin; GenBank AAC47169

[3] = target: recombinant EgAgB8/2 subunit of Echinococcus granulosus antigen B (Echinococcus granulosus); assay: SEC; 100 uL of lipid-free EgAgB8/2 (324 uM) or EgAgB8/3 (320 uM) loaded separately on Superdex 200 HR 10/30 in PBS, 0.5 mL/min; apparent molecular weight against BSA, carbonic anhydrase and cytochrome c
[4] = target: recombinant EgAgB8/3 subunit of Echinococcus granulosus antigen B (Echinococcus granulosus); assay: as above

CCCCCCC(CCCCCCCCCCC(=O)O)OC(=O)c1c2ccccc2cc2ccccc12 (stereo not shown) [12-AS, 12-(9-anthroyloxy) stearic acid]
Kd [1]: 340 ± 20 nM
Kd [2]: 160 ± 90 nM

recombinant EgAgB8/2 subunit of Echinococcus granulosus antigen B (natural protein)
stoichiometry N [3]: 7 to 8 subunits

recombinant EgAgB8/3 subunit of Echinococcus granulosus antigen B (natural protein)
stoichiometry N [4]: 4 to 5 subunits

— PMC4358968, “Lipid-Free Antigen B Subunits from Echinococcus granulosus: Oligomerization, Ligand Binding, and Membrane Interaction Properties” (PLoS Neglected Tropical Diseases, 2015)
